Reference: ChEMBL document CHEMBL3751703, “Structure-based design of a bisphosphonate 5(3)-deoxyribonucleotidase inhibitor” (Medchemcomm, 2015)

Columns and labels:
[1] = biological target: 5'(3')-deoxyribonucleotidase, cytosolic type (Homo sapiens, UniProt Q8TCD5); assay: Inhibition of N-terminal hexaHis-tagged human cytosolic 5'(3')-deoxynucleotidase using dUMP as substrate
[2] = biological target: 5'(3')-deoxyribonucleotidase, mitochondrial (Homo sapiens, UniProt Q9NPB1); assay: Inhibition of N-terminal hexaHis-tagged human mitochondrial 5'(3')-deoxynucleotidase using dUMP as substrate
Homo sapiens = organism: Homo sapiens; assay: Selectivity ratio of Ki for N-terminal hexaHis-tagged human cytosolic 5'(3')-deoxynucleotidase to Ki for N-terminal hexaHis-tagged human mitochondrial 5'(3')-deoxynucleotidase

Chain of 5'(3')-deoxyribonucleotidase, mitochondrial (Q9NPB1 whole entry): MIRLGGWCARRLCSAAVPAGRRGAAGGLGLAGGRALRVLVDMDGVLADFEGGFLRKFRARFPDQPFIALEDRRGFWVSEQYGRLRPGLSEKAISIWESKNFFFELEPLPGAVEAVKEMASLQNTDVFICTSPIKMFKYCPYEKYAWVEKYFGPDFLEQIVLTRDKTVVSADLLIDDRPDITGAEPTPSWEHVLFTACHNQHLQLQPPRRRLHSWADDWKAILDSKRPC
Chain of 5'(3')-deoxyribonucleotidase, cytosolic type (Q8TCD5 whole entry): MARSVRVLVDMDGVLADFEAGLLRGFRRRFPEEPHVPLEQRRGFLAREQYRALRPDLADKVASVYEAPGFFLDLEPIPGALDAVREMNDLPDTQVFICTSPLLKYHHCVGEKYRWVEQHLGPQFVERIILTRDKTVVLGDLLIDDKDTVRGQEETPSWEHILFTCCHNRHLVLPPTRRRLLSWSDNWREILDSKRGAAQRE

O=c1[nH]c(=O)n([C@H]2C[C@H]3O[C@](c4ccccc4)(P(=O)(O)O)OC[C@H]3O2)cc1/C=C/P(=O)(O)O
Ki [1]: 21.7 µM
Ki [2]: 0.128 µM
Ratio Ki (Homo sapiens): 20
